pIC50: −log10 of the molar value. Square brackets hold non-standard residues; d marks the D form. Peptide text beside a SMILES is read from it.
Assays:
[1] = test system: P. aeruginosa R2 and 121110 strains; assay: Transmission electron microscopy of treated bacteria; type: cell-based, Pseudomonas aeruginosa; settings: 4 h incubation at 4× MIC
Method: Bacterial strains P. aeruginosa R2 and 121110 under treatment with CAP-18, CAP-18_31, D-CAP-18, and D-CAP-18_31 were chosen for TEM visualization. A total of 5 mL AST broth cultures were prepared in 50 mL Falcon tubes and inoculated with single colonies grown in Columbia Agar incubated at 37 °C. Liquid cultures were then diluted 1:100 in fresh AST broth and incubated at 37 °C until OD 0.6 was reached. Cultures were then centrifuged 10 min at 3000× g at 4 °C, and supernatant was discarded and replaced by fresh AST. […] Results from TKC assays were used as a guidance to choose peptide concentrations and incubation times for TEM sample visualization. After incubation, tubes were centrifuged thrice for 15′ at 5000× g and 4 °C, substituting supernatant after each centrifugation by adding 10 mL PBS 1× to the pellet and resuspending. Supernatant was discarded after the final centrifugation step. Pellet was fixed by adding 1 mL of 2.5% glutaraldehyde + 2% paraformaldehyde in PBS 0.1 M at pH 7.4, and centrifuged 10′ at 5000× g and 4 °C. Supernatant was discarded 30 min after centrifugation and pellet was washed twice with 1 mL of fresh fixing solution. Samples were stored 4 °C O/N and processed by the Electronic Microscopy Unit, Medicine Faculty, University of Barcelona. University of Barcelona Microscopy Facilities.

human erythrocytes = assay: Hemolysis assay; type: cell-based; settings: for Hemolysis IC50: human erythrocytes, 4 h at 37 °C, value in brackets; for pIC50: red cells of human, 4 h
Method: Commercially available human blood (IWB1K2E10ML, Innovative Research Inc., Novi, MI, USA) was used to produce a 50% haematocrit solution by mixing at 1:1 with PBS 1× (P5493, 1 L, Sigma, St. Louis, MO, USA). Three consecutive PBS 1× washes plus centrifugation at 2600 rpm for 10 min steps were performed. Finally, a 2% erythrocyte solution was prepared in PBS 1× and chilled on ice until used. Polypropylene plates were filled with 50 µL PBS 1× per well for the samples and 50 µL 2% Triton X-100 (TX-100, 9002-93-1, 100 mL, Sigma, St. Louis, MO, USA) for the hemolysis controls. A solution at 4× final concentration of the assay of each peptide was prepared in PBS and 50 µL were added to the first column of each plate, followed by serial dilutions in the microplate. Then, 50 µL of the 2% erythrocyte solution was added to each plate. […] controls consisted in a 1:1 mix of PBS 1× and erythrocytes at 2%. Plates were incubated at 37 °C for 4 h and then centrifuged at 1500 rpm for 5 min. Eighty µL were extracted from the supernatant of each well carefully and transferred to a polystyrene flat bottom plate for reading and read at 450 nm in an Epoch microplate spectrophotometer (Epoch™, BioTek, Winooski, VT, USA).
The therapeutic index is a widely accepted parameter to represent the specificity of antimicrobial peptides for prokaryotic versus eukaryotic cells. It is calculated by the ratio of HC50 (hemolytic activity) and MIC (antimicrobial activity); thus, larger values of therapeutic index indicate greater specificity for prokaryotic cells.

For CC[C@@H](C)[C@@H](NC(=O)[C@@H](CCCCN)NC(=O)[C@@H](CCCCN)NC(=O)[C@@H](CC(C)C)NC(=O)[C@@H](CCCCN)NC(=O)[C@@H](CCC(=O)O)NC(=O)[C@@H](CCCCN)NC(=O)[C@H](NC(=O)[C@@H](CCCCN)NC(=O)[C@@H](CC(N)=O)NC(=O)[C@@H](CCCNC(=N)N)NC(=O)[C@@H](Cc1ccccc1)NC(=O)[C@@H](CCCCN)NC(=O)[C@@H](CCCNC(=N)N)NC(=O)[C@@H](CC(C)C)NC(=O)[C@@H](CCCNC(=N)N)NC(=O)[C@@H](CCCCN)NC(=O)[C@@H](CCCNC(=N)N)NC(=O)[C@@H](CC(C)C)NC(=O)CN)[C@H](C)CC)C(=O)NCC(=O)N[C@H](CCC(N)=O)C(=O)N[C@H](CCCCN)C(=O)N[C@@H](C(=O)N[C@H](CCC(N)=O)C(=O)NCC(=O)N[C@H](CC(C)C)C(=O)N[C@H](CC(C)C)C(=O)N1CCC[C@@H]1C(=O)N[C@H](CCCCN)C(=O)N[C@H](CC(C)C)C(=O)O)[C@H](C)CC [D-CAP-18_31, Glrkrlrkfrnkikeklkkigqkiqgllpkl] (H-G[dL][dR][dK][dR][dL][dR][dK][dF][dR][dN][dK][dI][dK][dE][dK][dL][dK][dK][dI]G[dQ][dK][dI][dQ]G[dL][dL][dP][dK][dL]-OH), the “effect on cell morphology (TEM)” value [1] was “different stages of cellular damage”, the “Hemolysis IC50” value (human erythrocytes) was 404.48 µg/mL and the pIC50 (human erythrocytes) was 3.96.

With “H-GLRKRLRKFRNKIKEKLKKIGQKIQGLLPKL-OH [CAP-18_31]” the “effect on cell morphology (TEM)” value [1] was “different stages of cellular damage”, the “Hemolysis IC50” value (human erythrocytes) was 690.97 µg/mL and the pIC50 (human erythrocytes) was 3.73.
